For orientation: solubility means how much of the substance goes into solution per volume. Lower therefore signals a poorly soluble substance.

The nature of the data set: solubility of the azo compound (to water). The format is physicochemical. The text has this:
The azo compound of the present invention can be used directly or in formulation with an appropriate carrier or the like, as a colorant for various kinds of articles. […] Said water-based composition is useful as a colorant for various kinds of articles. For example, said water-based composition can dye a material composed of cellulose. In addition, it can dye other materials having carbonamide bonds and widely used for dyeing of leather, textile and paper. Meanwhile, a typical use of the compound of the present invention includes an ink composition prepared by dissolving it in a liquid medium.

Molecules are shown by their SMILES.

`Nc1c(N=Nc2ccc3c(O)c(N=Nc4ccc5c(O)c(N=Nc6ccc(N=Nc7ccc(S(=O)(=O)O)cc7)cc6S(=O)(=O)O)c(S(=O)(=O)O)cc5c4S(=O)(=O)O)c(S(=O)(=O)O)cc3c2S(=O)(=O)O)cc(S(=O)(=O)O)c2cc(S(=O)(=O)O)c(N=Nc3ccc(S(=O)(=O)O)cc3[N+](=O)[O-])c(O)c12` [compound No. 2] had a solubility of no less than 100 mg/mL.

`Cc1cc(N=Nc2c(S(=O)(=O)O)cc3c(S(=O)(=O)O)c(N=Nc4c(S(=O)(=O)O)cc5c(S(=O)(=O)O)c(N=Nc6cc(S(=O)(=O)O)c7cc(S(=O)(=O)O)c(N=Nc8ccc([N+](=O)[O-])cc8S(=O)(=O)O)c(O)c7c6N)ccc5c4O)ccc3c2O)c(OCCCS(=O)(=O)O)cc1N=Nc1cc(S(=O)(=O)O)cc2cc(S(=O)(=O)O)cc(O)c12` [compound No. 13] gave a solubility of no less than 100 mg/mL.

For the origin of these results see patent US20090118479A1, “Azo compound, ink composition, recording method and colored article” (priority 2005, published 2009).
